According to paper PMC9230431, “Application of In Silico Filtering and Isothermal Titration Calorimetry for the Discovery of Small Molecule Inhibitors of MDM2” (Pharmaceuticals, 2022):
Read-outs that look alike come from different tables or passages of the source.

Target: T1, MDM2 (Homo sapiens, UniProt Q00987)
T1 construct: His tag-GB1-TEV site fusion expressed in E. coli BL21; His-GB1 removed by TEV cleavage
Assay: ITC, MDM2 titrated into compound, single-site fit
Assay type: binding
Source text: ITC, MDM2 titrated into compound, single-site fit on MDM2

T1 sequence (Q00987 5-125): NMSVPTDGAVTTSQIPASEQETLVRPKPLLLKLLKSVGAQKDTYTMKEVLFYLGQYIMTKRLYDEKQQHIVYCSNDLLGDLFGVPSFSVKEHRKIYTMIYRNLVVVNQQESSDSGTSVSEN

SMILES | Kd [nM] | Kd (50 mM sodium phosphate pH 6.8, 150 mM NaCl, 5% DMSO, 1 mM TCEP) [nM]
Cc1cccc(C)c1NC(=O)C(c1ccc(Cl)cc1)N1C(=O)CC1c1cccc(C(F)(F)F)c1 (stereo not shown) [M1-7] | 33500 | 
Cc1cccc(C)c1NC(=O)C(c1ccc(Cl)cc1)N1C(=O)CC1c1ccsc1 (stereo not shown) [M1-10] | 19500 | 
Cc1ccc(C2CC(=O)N2C(C(=O)Nc2c(C)cccc2C)c2ccc(Cl)cc2)o1 (stereo not shown) [M1-11] | 13100 | 
Cc1cccc(C)c1NC(=O)C(c1ccc(Cl)cc1)N1C(=O)CC1c1ccc(OC(C)C)cc1 (stereo not shown) [M1] | 2850 | 
Cc1[nH]c2ccccc2c1C(NS(=O)(=O)c1ccc(Cl)cc1)C(Cl)(Cl)Cl (stereo not shown) [M2-3] |  | 49700
O=S(=O)(NC(c1c[nH]c2cccc(F)c12)C(Cl)(Cl)Cl)c1ccc(Cl)cc1 (stereo not shown) [M2-7] | 979 | 
O=S(=O)(NC(c1c[nH]c2ccc(F)cc12)C(Cl)(Cl)Cl)c1ccc(Cl)cc1 (stereo not shown) [M2-8] | 1580 | 
O=S(=O)(NC(c1c[nH]c2cccc(Cl)c12)C(Cl)(Cl)Cl)c1ccc(Cl)cc1 (stereo not shown) [M2-10] | 578 | 
O=S(=O)(NC(c1c[nH]c2cc(Cl)ccc12)C(Cl)(Cl)Cl)c1ccc(Cl)cc1 (stereo not shown) [M2-11] | 704 | 
Cc1ccc2c(C(NS(=O)(=O)c3ccc(Cl)cc3)C(Cl)(Cl)Cl)c[nH]c2c1 (stereo not shown) [M2-12] | 844 | 
O=S(=O)(NC(c1c[nH]c2cc(F)cc(F)c12)C(Cl)(Cl)Cl)c1ccc(Cl)cc1 (stereo not shown) [M2-13] | 489 | 
O=S(=O)(NC(c1c[nH]c2cc(F)ccc12)C(Cl)(Cl)Cl)c1ccc(Cl)cc1 (stereo not shown) [M2-14] | 1220 | 
COc1cc(Cl)ccc1S(=O)(=O)NC(c1c[nH]c2ccccc12)C(Cl)(Cl)Cl (stereo not shown) [M2-15] | 3160 | 
Cc1ccc(S(=O)(=O)NC(c2c[nH]c3cc(F)ccc23)C(Cl)(Cl)Cl)cc1 (stereo not shown) [M2-18] | 1330 | 
O=S(=O)(NC(c1c[nH]c2ccccc12)C(Cl)(Cl)Cl)c1ccc(Cl)cc1 (stereo not shown) [M2] | 2080 | 
COc1ccccc1-c1nnc(SC2CCCCC2=O)n1-c1ccc(Cl)cc1 (stereo not shown) [M3] | 16600 | 
